≈ marks a conversion by molar mass, not a printed value.
Columns and labels:
[1] = system: ABCG2-R (wild-type ABCG2); experiment: Cytotoxicity assay (cell survival after 4 days), wild-type ABCG2; assay type: cell-based; conditions: human, PLB985 cells expressing ABCG2-R (wild-type ABCG2), selected by 10 nM MX
Experimental: (§1) Panel C: Cytotoxicity assay (cell survival after 4 days) of PLB985 cells expressing the ABCG2 variants. • ∘: Control, mock-transduced PLB985s; • Δ: PLB985s expressing ABCG2-R, selected by 10 nM MX; • ◯: PLB985s expressing ABCG2-G, selected by 100 nM MX.
(§2) This assay was performed in 24-well plates, cells seeded at a density of 200,000 cells/well. Cytotoxic drugs were added at the concentrations indicated and the cells were cultured for 4 days at 37° C. Total and live cell numbers were determined by flow cytometry after the addition of 2 μg/ml propidium-iodide, to identify dead cells.

[2] = system: ABCG2-G (R482G ABCG2); experiment: Cytotoxicity assay (cell survival after 4 days), R482G ABCG2; assay type: cell-based; conditions: human, PLB985 cells expressing ABCG2-G (R482G ABCG2), selected by 100 nM MX
Experimental: as §1, §2

[3] = Cytotoxicity assay (cell survival after 4 days), vector control; assay type: cell-based; conditions: human, mock-transduced (vector control) PLB985 cells
Experimental: as §1, §2

[4] = molecular target: T1, ABCG2-G (Homo sapiens, UniProt Q9UNQ0, R482G); conditions: 10 μM FTC, 5 μM MX; transduced cells pre-selected with 10 nM MX
T1 sequence (Q9UNQ0 whole entry R482G): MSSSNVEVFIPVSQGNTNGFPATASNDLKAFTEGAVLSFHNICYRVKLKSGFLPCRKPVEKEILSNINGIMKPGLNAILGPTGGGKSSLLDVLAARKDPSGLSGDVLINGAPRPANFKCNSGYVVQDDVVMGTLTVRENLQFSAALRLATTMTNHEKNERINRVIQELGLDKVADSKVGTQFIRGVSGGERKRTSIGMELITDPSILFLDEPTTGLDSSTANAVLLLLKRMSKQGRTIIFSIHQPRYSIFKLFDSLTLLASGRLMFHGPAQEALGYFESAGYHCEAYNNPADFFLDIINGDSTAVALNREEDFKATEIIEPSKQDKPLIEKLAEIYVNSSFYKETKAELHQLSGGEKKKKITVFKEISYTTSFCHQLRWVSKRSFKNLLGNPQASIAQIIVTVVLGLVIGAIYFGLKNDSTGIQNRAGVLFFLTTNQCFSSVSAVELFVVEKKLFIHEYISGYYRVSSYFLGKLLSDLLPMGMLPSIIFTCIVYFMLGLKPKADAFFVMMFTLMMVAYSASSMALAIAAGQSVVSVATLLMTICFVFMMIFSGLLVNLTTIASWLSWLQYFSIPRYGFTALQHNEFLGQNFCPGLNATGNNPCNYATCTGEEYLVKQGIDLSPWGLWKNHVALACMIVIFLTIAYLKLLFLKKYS
Experimental: (§3) Functional detection of ABCG2 expression was evaluated with a modified MX uptake assay of Robey et al. (Robey et al., 2001). Cells were suspended in phenol red-free Hank's balanced salt solution, with additional pH stabilization by 20 mM phosphate buffer. Aliquots of the suspension, containing 3×10^5 cells, were incubated with or without the addition of 5 μM MX, and also with 5 μM MX+10 μM FTC, a specific inhibitor of ABCG2 (Rabindran et al., 2000; van Loevezijn et al., 2001). After one hour incubation at 37° C., the cells were washed with ice-cold medium, resuspended in ice-cold medium containing 21 µg/ml propidium-iodide, and stored on ice until analysis by flow cytometry. Cellular MX values were determined at 635 nm excitation/661 nm emission wavelengths.

[5] = molecular target: ABCG2-R (Homo sapiens, UniProt Q9UNQ0); conditions: 10 μM FTC, 5 μM MX; ABCG2-R cells selected by 10 nM MX
Sequence of ABCG2-R (Q9UNQ0 whole entry): as the sequence (Q9UNQ0 whole entry R482G) above, with G482R counted along it
Experimental: (§4) Panel B: Flow cytometry detection of mitoxantrone uptake (dotted lines: autofluorescence, solid thick lines: MX fluorescence, solid thin lines: MX fluorescence in the presence of the ABCG2-inhibitor, FTC). Part 1: Mock-transduced PLB985s; Part 2: PLB985s expressing ABCG2-R, selected by 10 nM MX; Part 3: PLB985s expressing ABCG2-G, selected by 100 nM MX.
as §3

[6] = molecular target: T1, ABCG2-G; conditions: 10 μM FTC, 5 μM MX; ABCG2-G cells selected by 100 nM MX
Experimental: as §4, §3

[7] = system: mock-transduced PLB985 X-CGD cells; experiment: Mitoxantrone uptake assay, mock-transduced cells; assay type: cell-based, human; conditions: 10 μM FTC, 5 μM MX
Experimental: Cells were suspended in phenol red-free Hank's balanced salt solution, with additional pH stabilization by 20 mM phosphate buffer. Aliquots of the suspension, containing 3×10^5 cells, were incubated with or without the addition of 5 μM MX, and also with 5 μM MX+10 μM FTC, a specific inhibitor of ABCG2 (Rabindran et al., 2000; van Loevezijn et al., 2001). After one hour incubation at 37° C., the cells were washed with ice-cold medium, resuspended in ice-cold medium containing 21 g/ml propidium-iodide, and stored on ice until analysis by flow cytometry. Cellular MX values were determined at 635 nm excitation/661 nm emission wavelengths.

[8] = system: mouse X-CGD KO -/- bone marrow cells; experiment: Cytotoxicity assay on mouse bone marrow cells; assay type: cell-based
Experimental: FIG. 8. Panel A Cytotoxicity assay (cell survival after four days) on transduced mouse X-CGD KO −/− bone marrow cells • ♦Control, non transduced cells • ▪Cells tranduced by SPsAGS vector carrying cDNA of ABCG2-G, unselected, • ▴Cells tranduced by SPsATS vector carrying cDNA of ABCG2-T, unselected.
as §2
(§5) Drug selection of the transduced cells, cytotoxic assay, immunodetection of gp91^phox, nitroblue tetrazolium test (NBT) were performed similar as in human CD34+ cells except using murine cytokines. In the colony assay 10 000 cells were plated in semisolid medium containing 0, 5 and 10 nM MX.

[9] = system: human cord blood CD34+ cells; experiment: Suspension culture granulocyte differentiation with MX selection; assay type: cell-based; conditions: 5 nM MX selection
Excerpt: (§6) Transduced PLB985 cells were selected by stepwise increases in mitoxantrone or doxorubicin (DOX; other name: adriamycin) concentrations. Selection was started 5 days (in some cases: 7 days) after transduction; each drug concentration was applied for four days (in early experiments: 8 days). CD34+ cells were selected similarly but were first selected on day two after transduction.
Cell differentiation was induced by 0.5% dimethyl-formamide (DMF) in order to obtain granulocytes. In order to follow granulocyte differentiation, cells were labelled with monoclonal anti-CD11b/RPE antibody (Dako, Denmark), and staining was determined by flow cytometry. For the induction of differentiation in the case of normal CD34+ cells, both liquid suspension cultures and clonogenic progenitor assays were used. For suspension culture, fresh media, containing cytokines +G-CSF (50 ng/ml) were added to the cells 24 hours after transduction, and then the cells were incubated for 12-14 days at 37° C.

[10] = system: human cord blood CD34+ cells; experiment: Colony-forming cell assay; assay type: cell-based; conditions: 5 nM MX
Experimental: In the colony-forming cell assay the cells were plated at a concentration of 250 cells/ml and 1250 cells/ml in Iscove's medium, containing 0.9% methylcellulose, 30% FCS, 1% bovine serum albumin, 1.4×10^−5M dithiothreitol, 5 ng/ml human recombinant IL-3, 25 ng/ml SCF, 10 ng/ml GM-CSF, 2 ng/ml G-CSF and 2U/ml erythropoietin, in the presence or absence of 5 nM mitoxantrone. After 14 days of incubation at 37° C., the colony forming cells were counted.

[11] = system: mouse X-CGD KO -/- bone marrow cells; experiment: Colony assay from mouse bone marrow cells; assay type: cell-based; conditions: 5 nM or 10 nM MX in semisolid medium
Experimental: In the colony assay 10 000 cells were plated in semisolid medium containing 0, 5 and 10 nM MX.

[12] = system: transduced PLB985 X-CGD cells; experiment: Flow cytometry of gp91phox expression after drug selection; assay type: cell-based, human; conditions: 10 nM MX selection for four days; 40-48% before selection
Experimental: as §6
(§7) Gp91^phox expression was measured by flow cytometry (Becton Dickinson FACS Calibur) by using the 7D5 antibody (provided by M. Nakamura (Nakamura et al., 1987) and phycoerythrin-labeled anti-mouse secondary antibody (GAM-PE, 250 times dilution, Sigma).

[13] = system: mouse X-CGD KO -/- bone marrow cells; experiment: Flow cytometry of gp91phox expression in selected mouse bone marrow cells; assay type: cell-based; conditions: 5 days selection on 5 nM or 10 nM MX; SPsAGS transduced BM cells
Experimental: as §7, §5

Row | Compound | IC50 at 4 days [1] [µg/mL] | IC50 at 4 days [2] [µg/mL] | IC50 at 4 days [3] [µg/mL] | sensitivity of MX uptake to the inhibitor [4] | reversal of MX extrusion [5] | reversal of MX extrusion [6] | effect on MX uptake [7] | survival of cells ([8]; 5 nM or more mitoxantron, non-transduced control BM cells) | transduced cells resistant to MX (surviving cells) ([8]; 5 or 10 nM mitoxantron, SPsAGS or SPsATS transduced, unselected BM cells) | level of CD15+ cells after selection ([9]; ABCG2-G transduced CD34+ cells) | fate of mock-transduced cells in suspension culture ([9]; mock-transduced CD34+ cells) | decrease of CFC number ([10]; ABCG2-G transduced CD34+ cells) | colony formation ([10]; mock-transduced CD34+ cells) | colony formation ([11]; ABCG2-G transduced BM cells) | decrease of CFC number ([11]; ABCG2-T transduced BM cells) | colony formation ([11]; non-transduced BM cells) | ratio of gp91phox-expressing cells after selection [12] | gp91phox-positive cells after selection [13] [%]
1 | COc1cccc2c1C(=O)c1c(O)c3c(c(O)c1C2=O)C[C@@](O)(C(=O)CO)C[C@@H]3O[C@H]1C[C@H](N)[C@H](O)[C@H](C)O1 [ADR, doxorubicin] | ~0.02 (≈ 0.0368 µM) | ~0.25 (≈ 0.46 µM) | ~0.008 (≈ 0.0147 µM) |  |  |  |  |  |  |  |  |  |  |  |  |  |  | 
2 | COc1ccc2c3c([nH]c2c1)[C@H](C=C(C)C)N1C(=O)[C@@H]2CCCN2C(=O)[C@@H]1C3 [FTC, Fumitremorgin C] |  |  |  | fully sensitive | fully reversible | fully reversible | no effect |  |  |  |  |  |  |  |  |  |  | 
3 | O=C1c2c(O)ccc(O)c2C(=O)c2c(NCCNCCO)ccc(NCCNCCO)c21 [MX, mitoxantrone] | 0.03 (≈ 0.0675 µM) | 0.075 (≈ 0.169 µM) | ~0.01 (≈ 0.0225 µM) |  |  |  |  | all non-transduced control cells died | 15-20% | unchanged level of CD15+ cells | eliminated | about 50% | did not form colonies | hardly formed any | about 80% | did not form colonies | over 90% | > 80

Source: patent publication US20050255084A1, “Use of a half-transporter protein of the abcg-family for selecting cells and in gene therapy” (SOLVO BIOTECHNOLOGY, priority 2001, published 2005)
